Reference: ChEMBL document CHEMBL1128530, “Alpha- and beta-adrenoceptors: from the gene to the clinic. 1. Molecular biology and adrenoceptor subclassification” (J Med Chem, 1995)

Experiments:
[1] = target: T1, Alpha-1A adrenergic receptor (Homo sapiens, UniProt P35348); assay: Binding affinity against Alpha-1A adrenergic receptor from human clone
T1 sequence (P35348 whole entry): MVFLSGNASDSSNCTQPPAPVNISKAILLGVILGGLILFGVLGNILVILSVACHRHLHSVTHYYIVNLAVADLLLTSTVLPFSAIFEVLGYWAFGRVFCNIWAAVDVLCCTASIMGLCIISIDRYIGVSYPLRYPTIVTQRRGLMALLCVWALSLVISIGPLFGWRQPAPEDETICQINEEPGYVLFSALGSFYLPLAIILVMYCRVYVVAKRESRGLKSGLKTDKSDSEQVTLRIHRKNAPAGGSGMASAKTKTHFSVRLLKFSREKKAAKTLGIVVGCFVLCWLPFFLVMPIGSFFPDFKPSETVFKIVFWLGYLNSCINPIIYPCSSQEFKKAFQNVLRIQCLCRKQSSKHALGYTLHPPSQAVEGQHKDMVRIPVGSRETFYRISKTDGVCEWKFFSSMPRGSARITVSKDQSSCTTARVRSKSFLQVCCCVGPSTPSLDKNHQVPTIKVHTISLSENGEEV

[2] = target: T2, Alpha-2A adrenergic receptor (Rattus norvegicus, UniProt P22909); assay: The compound was tested for binding affinity against alpha-2d-adrenoceptor, from rat clones.
T2 sequence (P22909 whole entry): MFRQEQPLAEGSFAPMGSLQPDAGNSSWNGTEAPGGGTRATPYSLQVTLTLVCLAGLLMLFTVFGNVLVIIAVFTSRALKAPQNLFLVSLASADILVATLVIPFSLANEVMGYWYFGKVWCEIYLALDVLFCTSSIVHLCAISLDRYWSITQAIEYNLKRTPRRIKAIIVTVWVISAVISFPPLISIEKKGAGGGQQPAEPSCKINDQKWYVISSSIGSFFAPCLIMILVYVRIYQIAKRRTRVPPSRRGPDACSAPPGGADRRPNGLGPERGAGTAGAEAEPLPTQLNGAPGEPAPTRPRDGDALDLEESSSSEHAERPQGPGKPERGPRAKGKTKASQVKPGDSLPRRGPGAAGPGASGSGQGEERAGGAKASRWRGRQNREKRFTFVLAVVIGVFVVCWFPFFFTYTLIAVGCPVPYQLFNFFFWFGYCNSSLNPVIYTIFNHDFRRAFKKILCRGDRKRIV

[3] = target: Alpha-1B adrenergic receptor (Rattus norvegicus, UniProt P15823); assay: Overall binding displacement in tissues containing only the Alpha-1B adrenergic receptor (rat spleen, rat liver); type: tissue-based
Chain of Alpha-1B adrenergic receptor (Rattus norvegicus, UniProt P15823) (P15823 whole entry, looked up): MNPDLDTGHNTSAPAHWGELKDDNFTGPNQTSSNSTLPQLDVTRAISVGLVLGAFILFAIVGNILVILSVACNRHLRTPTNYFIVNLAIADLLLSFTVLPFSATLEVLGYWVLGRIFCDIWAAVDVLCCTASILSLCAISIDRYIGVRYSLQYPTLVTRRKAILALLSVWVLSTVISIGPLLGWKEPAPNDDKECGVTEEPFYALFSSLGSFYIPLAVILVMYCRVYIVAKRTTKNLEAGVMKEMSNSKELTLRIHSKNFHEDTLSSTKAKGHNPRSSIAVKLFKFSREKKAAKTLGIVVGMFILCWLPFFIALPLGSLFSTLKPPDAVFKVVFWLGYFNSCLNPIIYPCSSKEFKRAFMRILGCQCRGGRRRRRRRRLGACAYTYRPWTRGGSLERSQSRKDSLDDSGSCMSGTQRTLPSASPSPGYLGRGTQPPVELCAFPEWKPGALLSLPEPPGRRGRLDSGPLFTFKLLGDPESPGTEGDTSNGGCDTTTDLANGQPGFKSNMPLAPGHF

[4] = target: T3, Alpha-1D adrenergic receptor (Homo sapiens, UniProt P25100); assay: Binding affinity against Alpha-1D adrenergic receptor, from human clones.
T3 sequence (P25100 whole entry): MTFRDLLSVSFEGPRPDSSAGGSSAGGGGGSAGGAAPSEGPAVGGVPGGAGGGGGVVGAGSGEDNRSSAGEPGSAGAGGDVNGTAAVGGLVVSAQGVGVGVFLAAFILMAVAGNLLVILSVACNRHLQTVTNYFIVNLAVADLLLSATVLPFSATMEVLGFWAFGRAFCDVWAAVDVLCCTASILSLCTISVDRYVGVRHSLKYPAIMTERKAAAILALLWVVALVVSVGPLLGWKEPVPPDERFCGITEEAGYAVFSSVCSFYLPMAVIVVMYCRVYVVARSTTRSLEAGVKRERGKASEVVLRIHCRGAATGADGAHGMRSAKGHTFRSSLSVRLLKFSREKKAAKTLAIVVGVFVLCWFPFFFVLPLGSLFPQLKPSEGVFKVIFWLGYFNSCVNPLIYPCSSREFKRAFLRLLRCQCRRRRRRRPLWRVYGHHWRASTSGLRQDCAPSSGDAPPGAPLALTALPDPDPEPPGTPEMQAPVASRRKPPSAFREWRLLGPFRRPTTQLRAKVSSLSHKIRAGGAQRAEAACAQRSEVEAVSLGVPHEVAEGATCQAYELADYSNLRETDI

[5] = target: T4, Alpha-1A adrenergic receptor (Bos taurus, UniProt P18130); assay: The compound was tested for binding affinity against Alpha-1A adrenergic receptor from bovine clones.
T4 sequence (P18130 whole entry): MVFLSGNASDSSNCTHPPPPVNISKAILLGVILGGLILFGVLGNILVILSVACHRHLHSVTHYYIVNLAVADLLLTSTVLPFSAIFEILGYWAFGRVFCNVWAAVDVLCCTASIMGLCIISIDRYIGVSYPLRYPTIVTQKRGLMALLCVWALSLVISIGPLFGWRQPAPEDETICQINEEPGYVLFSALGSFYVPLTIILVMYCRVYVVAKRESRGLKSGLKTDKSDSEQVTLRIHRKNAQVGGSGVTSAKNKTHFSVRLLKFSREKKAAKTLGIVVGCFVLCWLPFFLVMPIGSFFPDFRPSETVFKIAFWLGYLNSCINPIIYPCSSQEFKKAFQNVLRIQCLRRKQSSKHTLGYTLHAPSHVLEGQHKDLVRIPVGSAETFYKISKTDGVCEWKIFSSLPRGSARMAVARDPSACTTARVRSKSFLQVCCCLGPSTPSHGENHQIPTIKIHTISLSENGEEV

[6] = target: T5, Alpha-1B adrenergic receptor (Homo sapiens, UniProt P35368); assay: The compound was tested for binding affinity against Alpha-1B adrenergic receptor, from human clones.
T5 sequence (P35368 whole entry): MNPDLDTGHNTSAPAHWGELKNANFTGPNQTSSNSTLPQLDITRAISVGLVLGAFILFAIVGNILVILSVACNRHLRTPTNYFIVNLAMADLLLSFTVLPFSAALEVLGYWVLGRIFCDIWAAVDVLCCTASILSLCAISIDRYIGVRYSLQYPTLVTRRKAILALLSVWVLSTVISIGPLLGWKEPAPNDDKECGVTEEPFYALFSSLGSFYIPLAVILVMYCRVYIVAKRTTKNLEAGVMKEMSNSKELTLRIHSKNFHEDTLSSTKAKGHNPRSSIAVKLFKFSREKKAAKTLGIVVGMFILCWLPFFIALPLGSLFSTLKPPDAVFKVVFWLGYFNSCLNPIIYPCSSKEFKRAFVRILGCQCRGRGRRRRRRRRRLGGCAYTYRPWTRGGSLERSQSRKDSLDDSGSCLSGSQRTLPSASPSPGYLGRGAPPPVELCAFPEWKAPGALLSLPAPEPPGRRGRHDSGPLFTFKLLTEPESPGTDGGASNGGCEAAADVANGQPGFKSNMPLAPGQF

SMILES	Ki [1]	Ki [2]	Ki [3]	Ki [4]	Ki [5]	Ki [6]
COc1cccc(OC)c1OCCNCC1COc2ccccc2O1 (centres undefined)	0.37 nM	46 nM	–	–	–	–
COc1ccccc1N1CCN(CCCNc2c(C)c(=O)n(C)c(=O)n2C)CC1	–	–	96 nM	21 nM	4.4 nM	92 nM
O=C(NC1CCN(CCc2c[nH]c3ccccc23)CC1)c1ccccc1 [INDORAMIN]	–	–	–	110 nM	12 nM	29 nM
